Results on 8 compounds are retold here after PubChem BioAssay (NCI).

The structures appear in SMILES notation.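 Where inhibition never reached the appropriate level, the endpoint shown equals the highest concentration tested. Otherwise, values were interpolated linearly from a five-concentration, 48-hour dose response in 96-well plates. TGI marks complete inhibition of growth.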

Some test systems named below: SNB-19 CNS; RXF 393 renal; SK-MEL-2 melanoma; HOP-62 NSCLC; A498 renal; SF-295 CNS; U251 CNS; SF-539 CNS; HCT-15 colon; SK-OV-3 ovarian; UO-31 renal; EKVX NSCLC; SF-268 CNS; NCI-H226 lung; 786-0 renal; SK-MEL-28 melanoma; MDA-MB-435; CAKI-1 renal; NCI/ADR-RES ovarian; SNB-75 CNS.
Experiment in all cases: inhibition of tumour cell growth, NCI panel, 48 h

As to `CC(=O)NCCCCN(CCCNC(C)=O)C(=O)CNS(=O)(=O)c1cccc2c(N(C)C)cccc12`, the TGI in the test on SNB-19 CNS, in the test on RXF 393 renal, in the test on SK-MEL-2 melanoma, in the test with HOP-62 NSCLC, in the test with A498 renal and with SF-295 CNS was more than 100 µM in each case. The TGI in the test on U251 CNS, in the test with SF-539 CNS, in the test on HCT-15 colon, with SK-OV-3 ovarian, with UO-31 renal and with EKVX NSCLC was more than 100 µM each time. Besides, the TGI with SF-268 CNS, with NCI-H226 lung, in the test on 786-0 renal, in the test on SK-MEL-28 melanoma and with MDA-MB-435 was more than 100 µM in each case.

As to `CC(NCc1c(O)ccc2ccc(=O)oc12)C(=O)O` (stereo unspecified), the TGI with SNB-19 CNS, with RXF 393 renal, in the test with CAKI-1 renal, in the test with SK-MEL-2 melanoma, in the test on HOP-62 NSCLC and in the test with SF-295 CNS was more than 100 µM in each case. Further, the TGI with U251 CNS, with SF-539 CNS, in the test on HCT-15 colon, in the test on SK-OV-3 ovarian, with NCI/ADR-RES ovarian and in the test on SNB-75 CNS was more than 100 µM throughout. The TGI in the test on UO-31 renal, in the test on EKVX NSCLC, with SF-268 CNS, in the test with NCI-H226 lung, with 786-0 renal and in the test with SK-MEL-28 melanoma was more than 100 µM throughout. In the test with MDA-MB-435, this compound showed a TGI of more than 100 µM.

Turning to `Cc1ccc(OCC2OC(n3cnc4nc(Nc5ccc(Cl)c(Cl)c5)nc(Cl)c43)CC2Oc2ccc(C)cc2)cc1` (stereo unspecified), the TGI with SNB-19 CNS, with RXF 393 renal, with CAKI-1 renal, with SK-MEL-2 melanoma, in the test on HOP-62 NSCLC and with SF-295 CNS was more than 100 µM in each case. In addition, the TGI in the test on U251 CNS, in the test on HCT-15 colon, with SK-OV-3 ovarian, with NCI/ADR-RES ovarian, in the test with SNB-75 CNS and with UO-31 renal was more than 100 µM in each case. Moreover, the TGI in the test with EKVX NSCLC, with SF-268 CNS, in the test with NCI-H226 lung, in the test with 786-0 renal, in the test with SK-MEL-28 melanoma and in the test on MDA-MB-435 was more than 100 µM each time.

With `Cc1cc(C)nc(NS(=O)(=O)c2ccc(Nc3c4ccccc4nc4c(C(=O)NC(CO)(CO)CO)cccc34)cc2)n1`, the TGI in the test on SNB-19 CNS was more than 100 µM; with CAKI-1 renal it was more than 100 µM; with SK-MEL-2 melanoma, 44.4 µM; in the test with HOP-62 NSCLC, more than 100 µM; with A498 renal it was more than 100 µM; with SF-295 CNS it was more than 100 µM. Also, the TGI is 83.5 µM in the test with U251 CNS; more than 100 µM with HCT-15 colon; more than 100 µM in the test with SK-OV-3 ovarian; more than 100 µM in the test on NCI/ADR-RES ovarian; 55.2 µM in the test on SNB-75 CNS; more than 100 µM in the test with UO-31 renal. Also, the TGI in the test with EKVX NSCLC was more than 100 µM; in the test on SF-268 CNS, more than 100 µM; in the test on 786-0 renal, more than 100 µM; in the test on SK-MEL-28 melanoma, 62.5 µM; with MDA-MB-435, 51.6 µM.

Consider `CC(C)(C)C1CCC2c3c([nH]c4ccccc34)C3C(=O)N(c4ccccc4Cl)C(=O)C3C2C1` (stereo unspecified), for which the TGI is more than 100 µM in the test with SNB-19 CNS; 33.3 µM with RXF 393 renal; 37.1 µM in the test with CAKI-1 renal; 35 µM with SK-MEL-2 melanoma; 32.5 µM in the test with HOP-62 NSCLC; 52.6 µM in the test with A498 renal. Moreover, the TGI in the test on SF-295 CNS was 57.2 µM; with U251 CNS, 50.6 µM; in the test on HCT-15 colon it was 31.6 µM; in the test on SK-OV-3 ovarian, more than 100 µM; in the test on NCI/ADR-RES ovarian it was 44 µM; with UO-31 renal, 78.1 µM. Moreover, the TGI in the test with EKVX NSCLC was 31.5 µM; with SF-268 CNS, 35.5 µM; with 786-0 renal, 27.7 µM; in the test with MDA-MB-435, more than 100 µM.

For the compound `COc1ccccc1C(=O)NO`, the TGI in the test with SNB-19 CNS, in the test with RXF 393 renal, in the test on CAKI-1 renal, in the test with SK-MEL-2 melanoma, in the test with HOP-62 NSCLC and in the test on SF-295 CNS was more than 100 µM throughout. Further, the TGI with U251 CNS, in the test with HCT-15 colon, in the test with SK-OV-3 ovarian, with NCI/ADR-RES ovarian, with SNB-75 CNS and in the test with UO-31 renal was more than 100 µM throughout. Moreover, the TGI with EKVX NSCLC, with SF-268 CNS, in the test on NCI-H226 lung, in the test on 786-0 renal, in the test on SK-MEL-28 melanoma and with MDA-MB-435 was more than 100 µM in each case.

In the case of `O=C(NNC1=NCCCN1)c1ccco1`, the TGI in the test with SNB-19 CNS, in the test on RXF 393 renal, in the test on SK-MEL-2 melanoma, in the test on HOP-62 NSCLC, in the test with SF-295 CNS and with U251 CNS was more than 100 µM throughout. In addition, the TGI in the test on SF-539 CNS, in the test on HCT-15 colon, in the test with SK-OV-3 ovarian, in the test with NCI/ADR-RES ovarian, in the test with SNB-75 CNS and in the test on UO-31 renal was more than 100 µM in each case. The TGI in the test with EKVX NSCLC, in the test on SF-268 CNS, in the test on NCI-H226 lung, with 786-0 renal, in the test with SK-MEL-28 melanoma and with MDA-MB-435 was more than 100 µM each time.

For `COc1ccc2c(=O)cc(-c3ccc(OC)c(OC)c3OC)oc2c1`, the TGI in the test on SNB-19 CNS, in the test on RXF 393 renal, with CAKI-1 renal, in the test with HOP-62 NSCLC, in the test with SF-295 CNS and in the test on U251 CNS was more than 100 µM throughout. In addition, the TGI in the test on SF-539 CNS was more than 100 µM; in the test on HCT-15 colon, more than 100 µM; in the test on SK-OV-3 ovarian, more than 100 µM; in the test with NCI/ADR-RES ovarian, more than 100 µM; in the test on SNB-75 CNS it was more than 92.6 µM; with UO-31 renal, more than 100 µM. The TGI with EKVX NSCLC, with SF-268 CNS, in the test with NCI-H226 lung, in the test on 786-0 renal, with SK-MEL-28 melanoma and in the test with MDA-MB-435 was more than 100 µM each time.
